The text below walks through data of EPA's ToxValDB 9.5.

Data set [1] relates to Rattus norvegicus. Particulars: for LEL: uterotrophic, injection, Active.
Data set [2] concerns Mus musculus. The settings on record: uterotrophic, Active.
In data set [3] the test system is Canidae. Particulars: oral, M/F, Beagle.
The test system of data set [4] is Canidae. Particulars: oral, Dog Other.
Data set [5] concerns Canidae. The settings on record: oral, M/F, Dog Other.
Data set [6] has as its system Rattus norvegicus. Particulars: reproduction developmental; oral; diet; F; Sprague-Dawley.
Data set [7] relates to Rattus norvegicus. The settings on record: short-term; duration: 28 days; oral; gavage; Sprague-Dawley.
The test system of data set [8] is Rattus norvegicus. The settings on record: oral; for LD50: acute.
Data set [9] concerns Oryctolagus sp. Particulars: acute; dermal.
The test system of data set [10] is Rattus norvegicus. The settings on record: oral.
The test system of data set [11] is Mus musculus. The settings on record: chronic; duration: 103 weeks; oral; gavage; M/F; B6C3F1; hepatic.
Data set [12] deals with Rattus norvegicus. Particulars: chronic; duration: 2 years; oral; gavage; M/F; kidney pathology.
The test system of data set [13] is Rattus norvegicus. Particulars: repeat dose other; oral.
Setting [14] is: chronic, Decreased body weight gain, altered serum chemistry parameters (decreased serum cholesterol, total protein, and serum albumin and globulin ….
The mark [15] stands for this setting: duration: 9 months, capsule, Decreased bodyweights, mortality, prostatic malfunction, foci of softening in the brainstem, & testicular atrophy.
Setting [16] is: subchronic, duration: 3 months, diet, BOR/WISW (SPF Cpb).
Setting [17] is: chronic, duration: 12 months, diet, increase in methemoglobin + Increased liver weights.
The mark [18] stands for this setting: Hershberger, duration: 10 days, oral, gavage, Sprague-Dawley, active + Negative + Antiandrogenic + anti-androgenic + DP and LABC decreased in high dose.

SMILES strings stand for the structures. Values joined by “and” are separate entries in the source; they are usually repeats but may differ in a detail not shown here. Identical values can stand only once.

As to `O=C(c1ccccc1)c1ccc(O)cc1O` [2,4-Dihydroxybenzophenone], the LEL in data set [1] (duration: 3 days, intraperitoneal) came to 500 mg/kg-day; in data set [2] (duration: 7 days, injection, subcutaneous) it was 300 mg/kg-day; in data set [2] (duration: 7 days, oral), 1000 mg/kg-day.

Regarding `CO/N=C1\C[C@]2(C[C@@H]3C[C@@H](C/C=C(\C)C[C@@H](C)/C=C/C=C4\CO[C@@H]5[C@H](O)C(C)=C[C@@H](C(=O)O3)[C@]45O)O2)O[C@H](/C(C)=C/C(C)C)[C@H]1C` [Moxidectin], the NOEL in data set [3] (subchronic, duration: 90 days, diet, Decreased bodyweight & feed consumption) worked out at 0.3 mg/kg-day.

For the compound `O=C1c2ccccc2C(=O)N1SC(Cl)(Cl)Cl` [Folpet], the NOEL came out at 10 mg/kg-day in data set [4] (chronic, duration: 1 years, capsule, Blood: Altered chemistry + Whole body: Altered weight gain); 10 mg/kg-day in data set [5] (setting [14]); 200 mg/kg-day in data set [1] (Hershberger, duration: 10 days, oral, gavage, Sprague-Dawley, inactive + Negative + Negative + neither + decrease in LABC and epididymis at 400 and 800 / decrease in liver and body wt (8% at 200 / 14…). The compound also yielded an LEL in [5] (setting [14]) of 60 mg/kg-day.

What is called NOAEL is the highest tested level that showed no adverse finding. On to `c1ccc(Nc2ccc(Nc3ccccc3)cc2)cc1` [N,N'-Diphenyl-p-phenylenediamine], for which the NOAEL in data set [6] is 0.3 mg/kg-day. This compound had an NOEL in data set [7] of 1000 mg/kg-day.

On to `CCNc1nc(Cl)nc(NC(C)(C)C#N)n1` [Cyanazine], for which the NOEL in data set [4] (chronic, duration: 1 years, diet, Blood: Altered clinical chemistry parameters + Blood: Increased platelet count + Whole body: Decreased weight) is 0.625 mg/kg-day.

For the compound `CCC(=O)O.CCC(=O)O.O=C(Nc1cccc(C2=NCCN2)c1)Nc1cccc(C2=NCCN2)c1` [Imidocarb dipropionate], the NOEL in data set [3] (subchronic, duration: 90 days, capsule, Transient reducting in food intake & histopathology in the liver) was found to be 5 mg/kg-day.

In data set [3] (setting [15]), `N=C(N)c1ccc(N=NNc2ccc(C(=N)N)cc2)cc1` [Diminazene] registered an LOEL of 60 mg/kg-day and an NOEL of 20 mg/kg-day.

As usually defined, the LD50 is the dose at which mortality reaches 50%. A higher LD50 goes with lower toxicity. A word on the LOAEL: it is the lowest tested level that showed an adverse finding. Take `CC(C)(C)CC(C)(C)c1ccc(O)cc1` [4-(1,1,3,3-Tetramethylbutyl)phenol]: the median lethal dose (LD50) in [8] was 2200 mg/kg; in [8] (Sprague-Dawley) it was > 2000 mg/kg; in [9] it was > 2000 mg/kg. In addition, the NOAEL is ≥ 2000 ppm in data set [8] (reproduction developmental, diet, Sprague-Dawley); 200 ppm in [8] (reproduction developmental, diet, Sprague-Dawley, generation: F0); 200 ppm in data set [8] (reproduction developmental, diet, Sprague-Dawley, generation: F1); 2.88 mg/kg-day in data set [8] (setting [16]). In [8] (setting [16]), this compound yielded an LOAEL of 28.8 mg/kg-day. The LEL was 200 mg/kg-day and 600 mg/kg-day in [1] (duration: 1 days, subcutaneous); 50 mg/kg-day in data set [1] (duration: 2 days, subcutaneous); 25 mg/kg-day in data set [1] (duration: 14 days, subcutaneous); 50 mg/kg-day in data set [2] (duration: 9 days, injection, subcutaneous).

As for `CCCN(CCC)c1c([N+](=O)[O-])cc(C(F)(F)F)cc1[N+](=O)[O-]` [Trifluralin], the NOEL in data set [4] (chronic, duration: 12 months, diet, Blood: Methemoglobinemia + Liver: Increased weight) is 0.75 mg/kg-day. In addition, in data set [5] (setting [17]), the LEL worked out at 3.75 mg/kg-day and the NOEL was found to be 0.75 mg/kg-day. In addition, in [1] (setting [18]), the LOEL was 250 mg/kg-day and 450 mg/kg-day; the NOEL was 75 mg/kg-day and 150 mg/kg-day.

Consider `CC1=CC(=O)CC(C)(C)C1` [Isophorone], for which the NOEL in data set [4] (subchronic, duration: 90 days, capsule, Kidney: Lesions) stood at 150 mg/kg-day; in data set [5] (subchronic, duration: 90 days, diet, no effects), 150 mg/kg-day; in data set [1] (Hershberger, duration: 10 days, oral, gavage, Sprague-Dawley, inactive + Negative + Negative + neither + increase age at PPS, decrease wt of SV, decrease testosterone at 800 / NS increase in liver wt …), 200 mg/kg-day. In [10] (subchronic, duration: 90 days, diet, F, other), this compound displayed an NOAEL of 312 mg/kg-day. This compound came in with an LOAEL in data set [11] of 179 mg/kg-day. In addition, the LEL in data set [12] came to 250 mg/kg-day.

As to `O=C1C2(Cl)C3(Cl)C4(Cl)C(Cl)(Cl)C5(Cl)C3(Cl)C1(Cl)C5(Cl)C24Cl` (stereo unspecified) [Kepone], the NOAEL in [10] (chronic, duration: 2 years, diet, M/F, Wistar, renal) turned out to be 0.089 mg/kg-day; in data set [10] (short-term, duration: 10 days, gavage, M, Fischer 344, neurological), 1.25 mg/kg-day; in [10] (subchronic, duration: 90 days, diet, M, Sprague-Dawley, neurological, reproductive) it was 0.26 mg/kg-day; in [13] it was 0.08 mg/kg-day. In data set [13], this compound gave an LOAEL of 0.4 mg/kg-day. The LEL in data set [1] (duration: 1 days, subcutaneous) is 10 mg/kg-day; in data set [1] (duration: 2 days, subcutaneous), 0.2 mg/day; in data set [1] (duration: 3 days, subcutaneous), 15 mg/kg-day and 20 mg/kg-day and 30 mg/kg-day; in data set [2] (duration: 3 days, injection, subcutaneous), 1 mg/kg-day.
